In doi:10.1101/2024.07.27.605435v1, “A fluorescent biosensor for the visualization of agmatine” (biorxiv, 2024) one finds Kd data, which are given here for one molecule.

The structures appear in SMILES notation.

The target of the assay is T1, PotF (Escherichia coli, UniProt P31133, A182D/S87Y).
T1 sequence (P31133 27-370 S87Y/A182D): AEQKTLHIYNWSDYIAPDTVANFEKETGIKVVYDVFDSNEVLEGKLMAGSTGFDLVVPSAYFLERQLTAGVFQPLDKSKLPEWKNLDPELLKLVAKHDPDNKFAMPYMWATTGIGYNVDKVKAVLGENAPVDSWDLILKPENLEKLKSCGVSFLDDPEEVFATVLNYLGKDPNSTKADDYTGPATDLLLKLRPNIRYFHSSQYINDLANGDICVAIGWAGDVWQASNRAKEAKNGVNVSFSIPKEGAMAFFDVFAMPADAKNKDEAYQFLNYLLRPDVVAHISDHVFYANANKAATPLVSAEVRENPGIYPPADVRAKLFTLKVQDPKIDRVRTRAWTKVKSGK
Description: isothermal titration calorimetry; crystal structure of the complex solved here. It is filed as binding. On the technique in general: In ITC the heat of successive injections is recorded.

In general, Kd refers to the concentration at which binding is half-saturated. Low values mean tighter binding, high ones weaker binding. In turn, `N=C(N)NCCCCN` [agmatine] had a Kd of 0.3 µM. This lies in the sub-micromolar range.
